21 compounds from patent US8329904B2, “Azacyclic derivatives” (Hoffmann-La Roche Inc., priority 2009, dated 2012) can be followed below.

Broadly, the IC50 is the concentration that gives 50% inhibition.

The target in the test is T1, human HSL (Homo sapiens, UniProt Q05469).
T1 construct: overlapping PCR to generate a full length human HSL ORF with a 3′-His6 tag; His6 (C); made in house; host or cells: High 5 insect cells (baculovirus, pFast-BAC)
T1 sequence (Q05469 1-1076): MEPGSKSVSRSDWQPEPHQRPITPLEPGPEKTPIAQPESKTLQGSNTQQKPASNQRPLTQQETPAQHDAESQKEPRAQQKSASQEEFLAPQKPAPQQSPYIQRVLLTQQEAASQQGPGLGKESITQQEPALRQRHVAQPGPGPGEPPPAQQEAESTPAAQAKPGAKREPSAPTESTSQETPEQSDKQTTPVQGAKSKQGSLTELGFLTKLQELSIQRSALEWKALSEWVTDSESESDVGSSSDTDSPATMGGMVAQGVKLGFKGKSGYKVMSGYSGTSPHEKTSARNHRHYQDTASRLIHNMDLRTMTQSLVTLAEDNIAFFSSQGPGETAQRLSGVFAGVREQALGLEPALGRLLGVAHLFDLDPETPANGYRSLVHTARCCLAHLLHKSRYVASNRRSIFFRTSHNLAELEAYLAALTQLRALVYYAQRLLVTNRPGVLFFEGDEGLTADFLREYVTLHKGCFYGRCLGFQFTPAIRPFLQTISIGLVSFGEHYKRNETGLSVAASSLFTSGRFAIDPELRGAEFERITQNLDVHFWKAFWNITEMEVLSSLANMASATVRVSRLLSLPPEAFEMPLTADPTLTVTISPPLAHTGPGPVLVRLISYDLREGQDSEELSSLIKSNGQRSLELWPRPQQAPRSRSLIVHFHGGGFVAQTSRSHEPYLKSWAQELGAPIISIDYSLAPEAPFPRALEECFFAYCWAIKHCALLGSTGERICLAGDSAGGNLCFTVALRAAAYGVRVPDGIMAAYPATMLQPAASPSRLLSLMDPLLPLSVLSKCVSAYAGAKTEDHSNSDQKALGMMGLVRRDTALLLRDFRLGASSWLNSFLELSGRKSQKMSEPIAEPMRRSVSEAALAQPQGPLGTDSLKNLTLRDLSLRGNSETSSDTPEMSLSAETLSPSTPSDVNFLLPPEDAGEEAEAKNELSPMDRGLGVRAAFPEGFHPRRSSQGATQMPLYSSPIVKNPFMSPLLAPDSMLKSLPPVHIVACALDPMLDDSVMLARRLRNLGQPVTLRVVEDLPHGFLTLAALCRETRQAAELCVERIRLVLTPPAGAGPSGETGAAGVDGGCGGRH
In words: Human Hormone-Sensitive Lipase (HSL) Enzyme Inhibition Assay. Type of test: biochemical. The note with it: colorimetric assay, 2,3-dimercapto-1-propanol tributyrate (DMPT) substrate, 37° C. for 20 minutes, absorbance at 405 nm; read-out: HSL hum IC50. The method, then:
Production of Human Full Length Hormone Sensitive Lipase-His^6
1) Cloning: cDNA was prepared from commercial human brain polyA-+ RNA and used as a template in overlapping PCR to generate a full length human HSL ORF with a 3′-His6 tag. This full length insert was cloned into the pFast-BAC vector and the DNA-sequence of several single clones was verified. DNA from a correct full length clone with the 3′His6 tag was used to transform the E. coli strain DH10BAC. Resulting bacmid DNA was used to generate a titered baculovirus stock for protein generation.
Cells were thawed. […] was done at 3×30 sec., Lubrol PX was added to 0.2% final concentration followed by stirring for 15 min. at 4° C. and centrifugation at 25 k×g, 60 min., 4° C. […] Supernatant was removed, the resin washed in the centrifuge vessel using 5 volumes of Base Buffer containing 0.2% Lubrol PX. Centrifugation was done again, then the supernatant discarded. The resin wass poured onto a 0.8 μm membrane in a disposable filter unit (Nalge 450-0080), and washed with 5 volumes of Base Buffer containing 0.2% Lubrol PX. It was then washed with 30 volumes of Base Buffer containing 60 mM imidazole pH 7.5 at 4° C. The protein was eluated with 5 volumes of 25 mM Tris-Cl, 300 mM NaCl, 200 mM imidazole, 10 mM 2-mercaptoethanol, pH 7.5 at 4° C. by tumbling resin with buffer end-over-end, 30 min., 4° C. The resin was captured on a 0.2 μm membrane disposable filter unit (Millipore SCGP U02 RE) and the eluate collected in the reservoir. The eluate was concentrated using a 30 k MWCO centrifugal filter device (Sartorius Vivascience Vivacell 100, VC1022), to 20 ml. It was then dialyzed overnight at 4° C., two times against 2 L of 10% glycerol, 25 mM Tris-Cl, 300 mM NaCl, 0.2 mM EDTA, 0.2 mM DTT, pH 7.5 at 4° C. The protein was filtered using a 0.22 μm disposable filter unit (Millipore SCGP00525). The protein concentration was calculated from absorbance at 280 nm, using 280=0.67 cm-1 mg-1. […] The protein was stored at −80° C.
Human Hormone-Sensitive Lipase (HSL) Enzyme Inhibition Assay:
HSL enzyme activity was measured by a colorimetric assay using 2,3-dimercapto-1-propanol tributyrate (Aldrich, St. Louis, Mo.) as a substrate. Typically, 1.5 mM 2,3-dimercapto-1-propanol tributyrate (DMPT) in 100 mM MOPS, pH 7.2, 0.2 mg/ml fatty acid-free BSA was prepared by sonication at 4° C. to homogenous suspension. Test compounds (2 mM stock in DMSO) were diluted 3 fold in series in DMSO. Compound solutions were diluted 24 fold in 1.5 mM DMPT containing solution and 18 ul per well was added to 384-well microplates (Corning Costar). Twelve microliters per well of human HSL (15 ug/ml) was added and the reaction mixture was incubated at 37° C. for 20 minutes. Six microliters of 12 mM dithio-bis-(2-nitrobenzoic acid) (DTNB) in DMSO plus 1.2% SDS and 0.6% Triton X-100 were added and the mixture was incubated at room temperature for 15 minutes. Product production was monitored by reading absorbance at 405 nm on an Envision Reader (PerkinElmer Life and Analytical Sciences, Shelton, Conn.).
As to `CN(Cc1ccccc1)S(=O)(=O)N1CCC2(CCN(c3ccc(OC(F)(F)F)cc3)C2=O)CC1` [Example 296, 1-Oxo-2-(4-trifluoromethoxy-phenyl)-2,8-diaza-spiro[4.5]decane-8-sulfonic acid benzyl-methyl-amide], the IC50 is 70 nM. Consider `O=C(COC1CCCC1)N1CCC2(CC1)CCN(c1ccc(OC(F)(F)F)cc1)C2=O` [Example 226, 8-(2-Cyclopentyloxy-acetyl)-2-(4-trifluoromethoxy-phenyl)-2,8-diaza-spiro[4.5]decan-1-one], for which the IC50 was found to be 50 nM. Regarding `Cc1nc(Cc2ccc(N3CCC4(CCN(S(=O)(=O)c5ccccc5Cl)CC4)C3=O)cc2)no1` [Example 136, 8-(2-Chloro-benzenesulfonyl)-2-[4-(5-methyl-[1,2,4]oxadiazol-3-ylmethyl)-phenyl]-2,8-diaza-spiro[4.5]decan-1-one], the IC50 is 80 nM. In the case of `O=C1N(CCc2ccc(Cl)cc2)CCC12CCN(S(=O)(=O)c1ccccc1Cl)CC2` [Example 47, 8-(2-Chloro-benzenesulfonyl)-2-[2-(4-chloro-phenyl)-ethyl]-2,8-diaza-spiro[4.5]decan-1-one] it was 40 nM; in that of `O=C1N(c2ccc(OC(F)(F)F)cc2)CCC12CCN(S(=O)(=O)CC(O)C1CC1)CC2` (stereo not drawn) [Example 208, 8-(2-Cyclopropyl-2-hydroxy-ethanesulfonyl)-2-(4-trifluoromethoxy-phenyl)-2,8-diaza-spiro[4.5]decan-1-one], 160 nM; in that of `CS(=O)(=O)Oc1ccc(N2CCC3(CCN(S(=O)(=O)c4ccccc4Cl)CC3)C2=O)cc1` [Example 48, Methanesulfonic acid 4-[8-(2-chloro-benzenesulfonyl)-1-oxo-2,8-diaza-spiro[4.5]dec-2-yl]-phenyl ester], 30 nM. For `O=C1N(c2ccc(C(F)(F)F)cc2)CCC12CCN(S(=O)(=O)c1ccccc1Cl)CC2` [Example 179, 8-(2-Chloro-benzenesulfonyl)-2-(4-trifluoromethyl-phenyl)-2,8-diaza-spiro[4.5]decan-1-one], the IC50 is 40 nM. Turning to `O=C(N1CCOCC1)N1CCC2(CC1)CCN(c1ccc(OC(F)(F)F)cc1)C2=O` [Example 257, 8-(Morpholine-4-carbonyl)-2-(4-trifluoromethoxy-phenyl)-2,8-diaza-spiro[4,5]decan-1-one], the IC50 came to 610 nM. As to `CCC(C)c1ccc(N2CCC3(CCN(C(=O)CC(C)(C)C)CC3)C2=O)cc1` (stereo not drawn) [Example 46, 2-(4-sec-Butyl-phenyl)-8-(3,3-dimethyl-butyryl)-2,8-diaza-spiro[4.5]decan-1-one], the IC50 is 150 nM. `O=C1N(c2ccc(OC(F)(F)F)cc2)CCC12CCN(S(=O)(=O)N1CCCC1)CC2` [Example 182, 8-(Pyrrolidine-1-sulfonyl)-2-(4-trifluoromethoxy-phenyl)-2,8-diaza-spiro[4.5]decan-1-one]: the IC50 is 90 nM. Consider `CC(CNS(=O)(=O)N1CCC2(CCN(c3ccc(OC(F)(F)F)cc3)C2=O)CC1)c1ccccc1` (stereo not drawn) [Example 288, 1-Oxo-2-(4-trifluoromethoxy-phenyl)-2,8-diaza-spiro[4.5]decane-8-sulfonic acid (2-phenyl-propyl)-amide], for which the IC50 worked out at 150 nM. As for `CC(C)OCC(=O)N1CCC2(CC1)CCN(c1ccc(OC(F)(F)F)cc1)C2=O` [Example 217, 8-(2-Isopropoxy-acetyl)-2-(4-trifluoromethoxy-phenyl)-2,8-diaza-spiro[4.5]decan-1-one], the IC50 came to 220 nM.

As to `O=C1N(CCc2ccc(Cl)c(Cl)c2)CCC12CCN(S(=O)(=O)c1ccccc1Cl)CC2` [Example 248, 8-(2-Chloro-benzenesulfonyl)-2-[2-(3,4-dichloro-phenyl)-ethyl]-2,8-diaza-spiro[4.5]decan-1-one], the IC50 was found to be 70 nM.

As for `CCc1ccc(N2CCC3(CCN(C(=O)Nc4ccc(F)cc4)CC3)C2=O)cc1` [Example 258, 2-(4-Ethyl-phenyl)-1-oxo-2,8-diaza-spiro[4.5]decane-8-carboxylic acid (4-fluoro-phenyl)-amide], the IC50 came to 400 nM.

Regarding `CCN(Cc1ccccc1)C(=O)N1CCC2(CC1)CCN(c1ccc(OC(F)(F)F)cc1)C2=O` [Example 310, 1-Oxo-2-(4-trifluoromethoxy-phenyl)-2,8-diaza-spiro[4.5]decane-8-carboxylic acid benzyl-ethyl-amide], the IC50 was 170 nM.

In the case of `Cc1oncc1S(=O)(=O)N1CCC2(CCN(c3ccc(OC(F)(F)F)cc3)C2=O)CC1` [Example 185, 8-(5-Methyl-isoxazole-4-sulfonyl)-2-(4-trifluoromethoxy-phenyl)-2,8-diaza-spiro[4.5]decan-1-one], the IC50 came to 220 nM. Then `CCc1ccc(N2CCC3(CCN(S(=O)(=O)CC(C)(C)C)CC3)C2=O)cc1` [Example 32, 8-(2,2-Dimethyl-propane-1-sulfonyl)-2-(4-ethyl-phenyl)-2,8-diaza-spiro[4.5]decan-1-one], with 80 nM; and `O=C1N(c2ccc(OC(F)(F)F)cc2)CCC12CCN(S(=O)(=O)CC1CCC1)CC2` [Example 93, 8-Cyclobutylmethanesulfonyl-2-(4-trifluoromethoxy-phenyl)-2,8-diaza-spiro[4.5]decan-1-one], with 90 nM. Consider `COC/C=C/c1ccc(N2CCC3(CCN(S(=O)(=O)c4ccccc4OC(F)(F)F)CC3)C2=O)cc1` [Example 144, 2-[4-((E)-3-Methoxy-propenyl)-phenyl]-8-(2-trifluoromethoxy-benzenesulfonyl)-2,8-diaza-spiro[4.5]decan-1-one], for which the IC50 amounted to 50 nM. As to `O=C(COc1ccccc1)N1CCC2(CC1)CCN(c1ccc(OC(F)(F)F)cc1)C2=O` [Example 221, 8-(2-Phenoxy-acetyl)-2-(4-trifluoromethoxy-phenyl)-2,8-diaza-spiro[4.5]decan-1-one], the IC50 was 60 nM. Consider `CC(C)NC(=O)c1ccc(N2CCC3(CCN(S(=O)(=O)c4ccccc4Cl)CC3)C2=O)cc1` [Example 160, 4-[8-(2-Chloro-benzenesulfonyl)-1-oxo-2,8-diaza-spiro[4.5]dec-2-yl]-N-isopropyl-benzamide], for which the IC50 was determined as 900 nM.
